Results from PubChem BioAssay (NCI).
“And” between values parts separate entries of the source, which are not always exact repeats. Identical values can stand only once.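 In this assay, cells in 96-well plates receive the compound at five concentrations for 48 hours. Endpoints are linearly interpolated between the surrounding concentrations. The concentration for 50% growth inhibition is given as GI50. At the TGI there is no net growth.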

How the values were obtained:
Experiment in all cases: growth of human tumour cells (NCI), 48 h
[1] = test system: CAKI-1 renal
[2] = test system: SW-620 colon
[3] = test system: SF-295 CNS
[4] = test system: A549 NSCLC
[5] = test system: UACC-257 melanoma
[6] = test system: SNB-75 CNS
[7] = test system: NCI-H460 lung
[8] = test system: T-47D breast
[9] = test system: MDA-MB-435
[10] = test system: OVCAR-8 ovarian
[11] = test system: ACHN renal
[12] = test system: SK-MEL-5 melanoma

Structure (SMILES)	TGI [1]	TGI [2]	TGI [3]	TGI [4]	TGI [5]	TGI [6]	TGI [7] [µM]	TGI [8]	TGI [9]	TGI [10]	TGI [11]	TGI [12]	GI50 [6]	GI50 [7]	GI50 [8] [µM]	GI50 [9] [µM]
O=C(c1ccccc1)c1ccc(-n2c3ccccc3c3ccc4c(c32)C(=O)C=CC4=O)cc1	4.4 µM	30.1 µM	32.4 µM	36.4 µM	27.5 µM	> 58.4 µM	36.2	> 22.6 µM	20.5 µM	27.2 µM	11.6 µM	43 µM	–	–	–	–
Cc1ncc2c(=O)c3c(oc2n1)c1ccccc1n3Cc1ccccc1	> 100 µM	> 100 µM	> 100 µM	> 100 µM	> 100 µM	> 100 µM	> 100	> 100 µM	> 100 µM	> 100 µM	> 100 µM	> 100 µM	–	–	–	–
c1ccc([P+](Cc2ccccc2C[P+](c2ccccc2)(c2ccccc2)c2ccccc2)(c2ccccc2)c2ccccc2)cc1	> 100 µM	> 100 µM	> 100 µM	> 100 µM	> 100 µM	> 100 µM	> 100	> 100 µM	> 100 µM	> 100 µM	> 100 µM	> 100 µM	–	–	–	–
COC(=O)C1OC(O[C@H]2CC[C@]3(C)[C@H]4CC=C5[C@@H]6CC(C)(C)CC[C@]6(C(=O)OC6OCC(O)C(O)C6OC6OC(C)C(OC7OCC(O)C(OC8OCC(O)C(O)C8O)C7O)C(OC7OCC(O)C(O)C7O)C6O)CC[C@@]5(C)[C@]4(C)CC[C@H]3C2(C)C)C(O)C(OC2OCC(O)C(O)C2O)C1O (stereo not given in full)	35.4 µM and 17.9 µM	> 100 µM and 24 µM	11.5 µM and 17 µM	11.3 µM and 11.7 µM	8.58 µM and 10.8 µM	25.3 µM and 26.3 µM	> 100	42.3 µM and 19.2 µM	4.13 µM and 4.42 µM	> 100 µM and 23.3 µM	22.1 µM and 15.9 µM	7 µM and 12.1 µM	5.19 µM and 11.7 µM	> 100 µM and 33.1 µM	–	–
CCN(CC)c1ccc2cc(C(=O)Nc3ccccc3)c(=N)oc2c1	> 100 µM	> 100 µM	> 100 µM	> 100 µM	> 100 µM	> 100 µM	> 100	> 100 µM	> 100 µM	> 100 µM	> 100 µM	> 100 µM	–	–	–	–
NCCN1C(=O)CN=C(c2ccc(Cl)cc2)c2cc(Cl)ccc21	32 µM	43 µM	> 100 µM	32.2 µM	34.9 µM	30.7 µM	34.4	59.3 µM	28.3 µM	32.2 µM	33 µM	31.4 µM	–	–	–	–
COc1ccc2cc(C(=O)O)ccc2c1OC	> 100 µM	> 100 µM	> 100 µM	> 100 µM	> 100 µM	> 100 µM	> 100	> 100 µM	> 100 µM	> 100 µM	> 100 µM	> 100 µM	–	–	–	–
[O-][n+]1ccccc1S	8.09 µM	23.1 µM	9.51 µM	38.5 µM	64.4 µM	> 100 µM	5.21	> 100 µM	> 100 µM	> 100 µM	> 100 µM	30.9 µM	–	–	6.27	3.17
CN(C)P(=O)(Oc1ccc(CC(NC(=O)OCc2ccccc2)C(=O)OCc2ccccc2)cc1)N(C)C (stereo not given)	32.8 µM	45.8 µM	34.5 µM	38.2 µM	47.5 µM	33.3 µM	48.8	52.3 µM	25.7 µM	33.2 µM	33.9 µM	38.1 µM	–	–	–	–
O=c1[nH]nc(Cc2ccccc2)n1/N=C\c1ccccc1	> 100 µM	> 100 µM	> 100 µM	> 100 µM	> 100 µM	> 100 µM	> 100	> 100 µM	> 100 µM	> 100 µM	> 100 µM	> 100 µM	–	–	–	–
O=C(CSc1nc2[nH]ncc2c(=O)[nH]1)c1ccc(Cl)cc1	> 100 µM	> 100 µM	> 100 µM	> 100 µM	> 100 µM	> 100 µM	> 100	> 100 µM	> 100 µM	> 100 µM	> 100 µM	> 100 µM	–	–	–	–
O=C1NC(=O)C2(CCCCCC2)N1	> 100 µM	> 100 µM	> 100 µM	> 100 µM	> 100 µM	> 100 µM	> 100	> 100 µM	> 100 µM	> 100 µM	> 100 µM	> 100 µM	–	–	–	–
CCCCCCOc1ccc(C(=O)NO)cc1	19.2 µM	35.8 µM	40.9 µM	43.3 µM	> 91.5 µM	> 67.2 µM	20.8	41.3 µM	38.5 µM	31.6 µM	21.5 µM	> 58.2 µM	–	–	–	–
CC(=O)Nc1ccc(-c2nc3ccccc3s2)cc1I	> 100 µM	> 100 µM	> 100 µM	> 100 µM	> 100 µM	67.4 µM	> 100	> 93.2 µM	> 100 µM	37.7 µM	> 100 µM	> 100 µM	–	–	–	–
CCCCC(Sc1cc(Cl)c(C)cc1S(=O)(=O)Nc1n[nH]c(N)n1)C(=O)OC (stereo not given)	> 10 µM	> 10 µM	> 10 µM	> 10 µM	> 10 µM	> 10 µM	> 10	> 10 µM	> 10 µM	> 10 µM	> 10 µM	> 10 µM	–	–	–	–
CCN1C(=O)C(C)S/C1=N\NC(=O)CSc1nc2ccccc2c(=O)n1CC (stereo not given)	> 100 µM	> 100 µM	> 100 µM	> 100 µM	> 100 µM	> 100 µM	20.4	> 100 µM	> 100 µM	> 100 µM	> 100 µM	> 100 µM	–	–	–	–
Cc1nc2c(=O)n(-c3ccccc3)c3ccccc3c2o1	> 100 µM	> 100 µM	> 100 µM	> 100 µM	> 100 µM	> 100 µM	> 100	> 100 µM	> 100 µM	> 100 µM	> 100 µM	> 100 µM	–	–	–	–
CC(NC(=O)c1ccccc1)NC(=O)C(C)C(=O)Nc1ccccc1 (stereo not given)	> 100 µM	> 100 µM	> 100 µM	> 100 µM	> 100 µM	> 100 µM	> 100	> 100 µM	> 100 µM	> 100 µM	> 100 µM	> 100 µM	–	–	–	–
